# Laboratory results from patent publication US5945436A, “Pyridylmethyl nitriles, amides and thioamides useful as fungicides” (Uniroyal Chemical Company, Inc., priority 1997, dated 1999).
# Key:
# Septoria nodorum = assay: Fungal growth inhibition, treated disc on agar (SEP NOD); type: cell-based; details: disc dipped in 500 mg/l, 29° C.; for inhibition at 500 µg/mL: Parastagonospora nodorum, read-out: Percent Growth Inhibition, SEP NOD
# Uromyces phaseoli = assay: Bean rust fungus eradicant test (URO PHA); type: in vivo; details: pinto bean, eradicant spray 2 days after inoculation, 1,000 mg/l; for pest or weed control at 1000 µg/mL: Uromyces phaseoli, 216 h, read-out: Percent Reduction of Disease, URO PHA
# Outline: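 Seven-day-old pinto bean plants (Phaseolus vulgaris, primary leaf) were inoculated with 20,000 spores/ml, held 24 h at 99% humidity and 21° C., then sprayed two days post-inoculation with acetone/TWEEN 20 emulsions at 1,000 mg/l. After nine days in a 21° C. greenhouse, disease was scored as percent reduction versus unsprayed controls.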
# Erysiphe graminis [1] = assay: Powdery mildew in barley, foliar application (ERY GRA); type: in vivo; details: foliar, 1,000 mg/l, 8 days after inoculation; for pest or weed control at 1000 µg/mL: Blumeria graminis, foliar, 192 h, read-out: Percent Reduction of Disease, ERY GRA
# Outline: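 'Robust' barley plants sprayed with acetone/TWEEN 20 aqueous emulsion at 1,000 mg/l, dried, then kept at 21° C in a greenhouse. Inoculated by distributing Erysiphe graminis spores from infected plants. Percent control computed from disease scores vs unsprayed control pots.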
# Fusarium oxysporum = assay: Fungal growth inhibition, treated disc on agar (FUS OXY); type: cell-based; details: disc dipped in 500 mg/l, 29° C.; for inhibition at 500 µg/mL: Fusarium oxysporum, read-out: Percent Growth Inhibition, FUS OXY
# Erysiphe graminis [2] = assay: Powdery mildew of barley, systemic root uptake (BMS); type: in vivo; details: 45 ml of 250 mg/l, 8 days after inoculation
# Outline: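 Pot soil of barley (BMS) and cucumber (CMS) plants was drenched with 45 ml of a 250 mg/l acetone/Tween 20 aqueous emulsion, with untreated plants as controls. Disease was scored on a rating scale that included intermediate grades.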
# Rhizoctonia solani = assay: Fungal growth inhibition, treated disc on agar (RHI SOL); type: cell-based; details: disc dipped in 500 mg/l, 29° C.; for inhibition at 500 µg/mL: Rhizoctonia solani, read-out: Percent Growth Inhibition, RHI SOL
# Description: (§1) Filter paper discs, each 11 mm. in diameter, were dipped in each of the test solutions. The discs were allowed to air dry to drive off the acetone solvent. A number of untreated discs were used as controls.
# (§2) The treated and untreated discs were then placed on agar plates and one of the following fungus species: Septoria nodorum (SEP NOD), Botrytis cinerea (BOT CIN), Fusarium oxysporum (FUS OXY), Pythium ultimum (PYT ULT), Rhizoctonia solani (RHI SOL), Colletotrichum gossypii (COL GOS), and Scierotinia minor (SCL MIN), was added to the center of each disc in the form of a culture plug with the fungus mat in contact with the paper of the test disc. Cercosporidium personatum (CER PER), was added to discs as a spore suspension (20,000 spores/ml) to the disc (two drops of spore suspension per disc), rather than a mycelial culture plug. The plates were then incubated at 29° C. in an oven.
# (§3) With the exception of the discs containing Cercosporidium personatum, the discs were evaluated by first measuring the radius from the center of the fungus colony on the treated discs and on the untreated discs. Percent growth inhibition of each of the compounds tested was determined as a function of the difference between the radius of the fungus colony on the treated disc versus the radius of the fungus colony on the untreated disc.
# Botrytis cinerea = assay: Fungal growth inhibition, treated disc on agar (BOT CIN); type: cell-based; details: disc dipped in 500 mg/l, 29° C.; for inhibition at 500 µg/mL: Botrytis cinerea, read-out: Percent Growth Inhibition, BOT CIN
# Description: as §1, §2, §3
SMILES,"Percent Growth Inhibition, SEP NOD (Septoria nodorum) [%]","Percent Reduction of Disease, URO PHA (Uromyces phaseoli) [%]","Percent Reduction of Disease, ERY GRA (Erysiphe graminis [1]) [%]","Percent Growth Inhibition, FUS OXY (Fusarium oxysporum) [%]","Percent Reduction of Disease, BMS (Erysiphe graminis [2]) [%]","Percent Growth Inhibition, RHI SOL (Rhizoctonia solani) [%]","Percent Growth Inhibition, BOT CIN (Botrytis cinerea) [%]",inhibition at 500 µg/mL (Septoria nodorum) [%],pest or weed control at 1000 µg/mL (Erysiphe graminis [1]) [%],inhibition at 500 µg/mL (Rhizoctonia solani) [%],inhibition at 500 µg/mL (Botrytis cinerea) [%],pest or weed control at 1000 µg/mL (Uromyces phaseoli) [%],inhibition at 500 µg/mL (Fusarium oxysporum) [%]
CCCCC(C#N)(CCc1ccc(OC)cc1)c1ccccn1 (centres unmarked) [Compound 31],81,35,20,83,0,5,89,,,,,,
CCCCC(C#N)(CCc1ccc(OCC)cc1)c1cccnc1 (centres unmarked) [Compound 35],,90,,30,0,,,90,85,40,91,,
CCCC(C#N)(CCCc1ccccc1OC)c1cccnc1 (centres unmarked) [Compound 71],,,,,100,,,100,100,6,100,92,72
N#CC(CCc1ccc(F)cc1)(CCC(F)(F)F)c1cccnc1 (centres unmarked) [Compound 77],,,,,100,,,20,90,40,65,90,55
CCCCCCC(C#N)(CCc1ccc(OCC)cc1)c1cccnc1 (centres unmarked) [Compound 44],,,,,0,,,100,83,30,43,92,8
C=CCC(C#N)(Cc1ccc(C(C)(C)C)cc1)c1cccnc1 (centres unmarked) [Compound 18],,,,,20,,,5,100,40,10,0,50
C=CCC(C#N)(CCc1ccc(OC)cc1)c1ccccn1 (centres unmarked) [Compound 28],96,100,90,100,0,60,98,,,,,,
N#CC(CCc1ccc(F)cc1)(CC(F)(F)F)c1cccnc1 (centres unmarked) [Compound 52],,,,,100,,,100,100,100,100,70,100
COc1ccc(CCC(C#N)(CC(C)C)c2ccccn2)cc1 (centres unmarked) [Compound 29],83,100,100,97,0,70,98,,,,,,
C#CCC(C#N)(CCc1ccc(F)cc1)c1cccnc1 (centres unmarked) [Compound 41],,,,,0,,,63,92,26,32,0,30
C=CCC(C#N)(CCc1ccccc1)c1cccnc1 (centres unmarked) [Compound 5],,,,,85,,,50,85,100,100,90,76
